Data: patent US20100311714A1, “1H-IMIDAZO[4,5-c]QUINOLINONE COMPOUNDS” (priority 2009, published 2010)

Experiments:
[1] = Parallel Artificial Membrane Permeability Assay (PAMPA) at pH 6.8; format: physicochemical
In short: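 PAMPA permeability measured at pH 6.8 following the Wohnsland and Faller method; value reported as log Pe.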

[2] = molecular target: T1, mTOR (Homo sapiens, UniProt P42345); assay: Biochemical assay for m-TOR by TR-FRET; conditions: read-out: EPK_mTOR/IC50
T1 construct: purchased Invitrogen Corporation (Carlsbad/Calif., USA) PV4753
T1 sequence (P42345 1360-2549 limits assumed): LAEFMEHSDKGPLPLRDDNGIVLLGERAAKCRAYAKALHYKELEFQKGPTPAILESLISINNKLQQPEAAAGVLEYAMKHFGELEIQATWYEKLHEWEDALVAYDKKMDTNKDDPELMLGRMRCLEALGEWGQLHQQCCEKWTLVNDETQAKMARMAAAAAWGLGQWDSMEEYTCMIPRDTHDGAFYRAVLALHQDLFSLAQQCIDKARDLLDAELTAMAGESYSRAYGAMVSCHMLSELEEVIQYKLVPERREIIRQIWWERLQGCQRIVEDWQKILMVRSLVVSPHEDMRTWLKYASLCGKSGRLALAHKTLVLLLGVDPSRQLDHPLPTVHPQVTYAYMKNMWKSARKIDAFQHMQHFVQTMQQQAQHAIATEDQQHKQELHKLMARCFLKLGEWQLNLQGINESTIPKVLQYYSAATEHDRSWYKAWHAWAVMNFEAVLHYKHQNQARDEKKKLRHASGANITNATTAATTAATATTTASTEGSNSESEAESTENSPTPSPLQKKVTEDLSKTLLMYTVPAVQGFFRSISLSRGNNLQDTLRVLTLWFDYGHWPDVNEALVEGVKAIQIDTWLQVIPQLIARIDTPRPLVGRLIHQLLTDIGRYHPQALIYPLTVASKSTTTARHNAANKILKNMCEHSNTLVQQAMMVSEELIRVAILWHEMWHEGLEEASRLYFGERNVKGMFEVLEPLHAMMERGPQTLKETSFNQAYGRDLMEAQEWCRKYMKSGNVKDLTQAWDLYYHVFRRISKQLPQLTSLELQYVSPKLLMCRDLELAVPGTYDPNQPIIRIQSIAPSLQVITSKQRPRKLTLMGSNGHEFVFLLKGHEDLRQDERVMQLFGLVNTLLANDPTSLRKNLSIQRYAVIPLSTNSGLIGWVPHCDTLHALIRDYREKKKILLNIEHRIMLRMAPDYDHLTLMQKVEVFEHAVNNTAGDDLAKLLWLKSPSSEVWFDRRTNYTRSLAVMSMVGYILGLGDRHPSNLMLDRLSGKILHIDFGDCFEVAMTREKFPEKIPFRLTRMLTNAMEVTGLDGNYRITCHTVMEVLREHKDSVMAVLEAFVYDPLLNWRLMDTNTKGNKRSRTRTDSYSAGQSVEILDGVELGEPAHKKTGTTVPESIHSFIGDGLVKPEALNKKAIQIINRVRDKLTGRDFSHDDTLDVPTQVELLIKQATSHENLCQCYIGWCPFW
In short: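 mTOR (0.5 nM) phosphorylates GFP-4EBP1 (400 nM) with 8 μM ATP at rt in 50 mM HEPES pH 7.5, 10 mM MnCl2, 50 mM NaCl, 1 mM EGTA, 1 mM DTT; compounds 0.003–10 μM final. EDTA stop with Tb-anti-p4EBP1[pT46] antibody (0.5 nM); TR-FRET read after 15 min against no-enzyme and vehicle controls.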

[3] = test system: PKB Ser473 phosphorylation in Rat1-myr-HA-p110 beta cells; assay: Reverse protein array, PKB Ser473 phosphorylation in Rat1-myr-HA-p110 beta cells; format: cell-based; conditions: Rattus norvegicus, 0.5 h, 30 minutes compound incubation, read-out: p-PKB/IC50_beta

HT-Perm logPe pH6.8 [1]: −3.7
IC50 [2]: 3 nM
IC50 [3]: 7.5 nM
SMILES: CCNc1cc(-c2ccc3ncc4c(c3c2)n(-c2ccc(OC)nc2C)c(=O)n4C)cnc1C [Example 11.7, 8-(5-Ethylamino-6-methyl-pyridin-3-yl)-1-(6-methoxy-2-methyl-pyridin-3-yl)-3-methyl-1,3-dihydro-imidazo[4,5-c]quinolin-2-one]
